Measured values from patent US9499823B2, “Constructs expressing chimeric receptors and use thereof for the controlled activation of defence response to pathogens in plants” (priority 2009, dated 2016).
Entries after “also recorded” stand apart in the source; their conditions may differ.

How the values were obtained:
[1] = system: agroinfiltrated Arabidopsis thaliana Col-0 leaves; assay: Receptor internalization: decrease of GFP fluorescence by confocal microscopy in agroinfiltrated Arabidopsis Col-0 leaves; type: cell-based; conditions: for decrease of plasma membrane-associated fluorescence signal: explants at 2 dpi; for fluorescence variation upon treatment with elfl8: 10 μM elfl8, 30 min, EFR up to 1 mM elicitor (data not shown); for fluorescence variation upon treatment with OGs: up to 30 min, no EDTA; for decrease of fluorescence from the cell membrane: OGs 100 μg/ml 30 min pre-stimulation, then 5 mM EDTA
Procedure: PCR templates are shown in bold. Primers listed in Table 1 are shown in capital letters. Stable transgenic lines were generated using the standard A. tumefaciens-mediated gene transfer procedure of inflorescence infiltration (Bent et al., 2006). Independent transformed plant pools were kept separate for the selection of independent transgenic lines based on their phosphinotrycin resistance and leaves GFP fluorescence. Tobacco and Arabidopsis transient transgenic lines were prepared by infiltrating with Agrobacterium tumefaciens carrying the individual constructs, as described by Reca (2008).
The GFP-dependent fluorescence was monitored from 2 to 4 days post infection in cells of the lower epidermis. Pieces of leaf were randomly cut from the infected area and mounted in water or supplemented with elicitors for microscopic observations. Flg22 and elfl8 were used at 10 μM while oligosaccharides were used at 100 μg/mL. Materials were analyzed using a Leica DM IRE epifluorescence microscope equipped with a digital cooled camera (DFC350FX R2; Leica). GFP fluorescence was excited with a 488-nm laser line, and emitted fluorescence was collected at 543-nm. The Leica Confocal Software and Adobe Photoshop 5.0 were used for post-acquisition image processing. All samples were imaged with the 40× or 100× oil objectives. Pictures were taken in Kahlman frame giving an average of 16 scans for the dynamics of internalization and 4 scans for the cellular localizations. […]
The dynamics of fluorescence localization upon treatment with elicitors was then studied. Whereas endocytosis of surface receptors upon ligand binding often occurs in animals (Warren and Landgraf 2006), this mechanism in plants has emerged only recently (Geldner & Robatzek 2008) and, so far, FLS2 is the only receptor involved in plant immunity shown to undergo endocytosis upon the specific stimulation with flg22 (Robatzek et al., 2006). The authors tested the effect of flg22 and elf 18, i.e. the peptides specifically recognized by FLS2 and EFR respectively, and oligogalacturonides with a degree of polymerization between 10 and 16 (OGs), which act as general elicitors of defense responses in several plants. Explants from agroinfiltrated Arabidopsis leaves at 2 dpi were treated with elicitors and then subjected to confocal microscopy analysis. […] Instead, when eJMC-expressing explants were stimulated with flg22, the fluorescent signal decreased by 25% and 40% after 20 min and 30 min, respectively (FIG. 3B).
The first chimeric receptor, indicated as WEG, comprised the WAK1 ectodomain fused to the TM-iJM-kinase portion of EFR and was designed to test the ability of the WAK1 ectodomain to perceive OGs and transmit the signal inside the cell. […] Both WEG and EWAK as well as WAK1 were fused to GFP and used in agroinfiltration experiments (FIG. 5A). […] Western-blot analysis using GFP-specific antibodies on proteins from IWF and microsomal fractions prepared from infiltrated leaves confirmed the plasma membrane localization of both fluorescent chimeras (FIG. 5D). The effect of OGs on the internalization of WEG was followed in agroinfiltrated Arabidopsis Col-0 leaves. […] This might be due to the inability of WEG to uncouple its ectodomain from pectins, since it is known that WAK1 strongly binds to pectin and only denaturing treatments allow its separation from cell wall (He et al., 1996). On the other hand, affinity studies have shown that WAK1 interact with cell wall pectins that are in a Ca^2+-induced conformation (i.e. the structures called “egg boxes”) and that the interaction is disrupted by adding a chelating agent such as EDTA (Decreux et al., 2005; Cabrera et al., 2008). The authors therefore tested whether OG-induced internalization of WEG occurred in the presence of 5 mM EDTA. WEG-expressing agroinfiltrated leaves were syringe-infiltrated with OGs and after 30 min the tissues were mounted in the presence of EDTA for confocal microscopy analysis. […]

[2] = system: RetOx, CYP81F2 and PAD3 transcripts; assay: Elicitor-induced accumulation of Ret-Ox, CYP81F2 and PAD3 transcripts, semi-quantitative PCR; type: cell-based, Arabidopsis thaliana; conditions: flg22 1 μM, 30 minutes, stably transformed Ws-0 plants
Procedure: B) Elicitor induced accumulation of Ret-Ox, CYP81F2 and PAD3 transcripts analysed by semi-quantitative PCR, using the UBQ5 gene for normalization. Leaves were incubated with water, flg22 (1 μM), elfl8 (10 μM) or a generic peptide (10 μM) for 30 minutes. The experiment was repeated three times with similar results. The same experiment was performed in a second independent transgenic line expressing eJMC with similar results.
(§1) 3,3′-diaminobenzidine (DAB) staining, callose deposition and gene resistance analysis were assayed as described (Galletti et al., 2008). For measuring active oxygen species released by tobacco agroinfiltrated plants after elicitor treatment, the authors used a modified luminol-dependent assay (Gomez et al., 1999). Slices, corresponding to approximately 30 mg fresh weight, were transferred to assay tubes containing 1 μM flg22 or 10 μM elfl8 in aqueous solution supplied with 40 μM luminol (SIGMA). Chemo-luminescence was measured in a liquid scintillation counter (LS-6500, Beckman) after 5 and 15 min upon addition of elicitors.
(§2) Fluorescent eJMC and FLS2 were also stably expressed in transgenic Arabidopsis ecotype Wassilewskija (Ws-0), which carries EFR but lacks a flg22 perception system (Gomez-Gomez et al., 1999, Bauer et al., 2001). Transformed T1 plants expressing the proteins, named eJMC plants and FLS2 plants, respectively, were selected by confocal microscopy analysis of adult rosette leaves. […] Fluorescence was detected only in adult rosette leaves, likely due to a low expression level of the receptor at the different developmental stages.

[3] = system: transgenic Arabidopsis Ws-0 seedlings; assay: Seedling growth inhibition by flg22 in transgenic Ws-0; type: in vivo, Arabidopsis thaliana; conditions: data not shown
Source text: as §2

[4] = system: Pseudomonas syringae DC3000; assay: Pseudomonas DC3000 infection of Arabidopsis Ws-0 plants by spraying; type: in vivo; conditions: transgenic Ws-0 plants vs Ws-0 wild type, 4 days post infection
Source text: C) Pseudomonas DC3000 infections. (Left Panel) Symptoms disease of wild type and transformed plants after 4 days post infection. (Right panel) Growth of Pseudomonas syringae DC3000 after 4 day post infection. ***, p<0.005.
The authors therefore infected A. thaliana plants by spraying Pst DC3000 bacteria onto leaf surfaces. […] Higher resistance of eJMC plants, compared to Ws-0 wild-type plants, was found in all of three independent experiments.

[5] = system: oxidative burst in tobacco leaves; assay: Oxidative burst, luminol-dependent photon counting in agroinfiltrated tobacco leaf slices; type: cell-based, Nicotiana tabacum; conditions: 10 μM elfl8, after 15 min
Procedure: D) Oxidative burst in tobacco leaves transiently expressing eJMC, EFR and EWAK. Photon counting was realized using tobacco leaves slices in a solution of luminol and peroxidase, during treatment with 10 μM elfl8. eJMC- and EFR-expressing explants were used as a negative and a positive control, respectively. Experiment was repeated at least 6 times on two independent replicated.
(C) Oxidative burst in agroinfiltrated tobacco leaves expressing EWAK. Leaves expressing eJMC and EFR were used as a negative and a positive control, respectively. The burst was measured by photon counting using leaf slices incubated in a solution containing 10 μM elfl8, luminol and peroxidase. The experiment was repeated at least 6 times with two independent replicates.
as §1

[6] = 10 μM flg22, after 20 min of stimulation
[7] = 10 μM flg22, after 30 min of stimulation

Molecule | decrease of plasma membrane-associated fluorescence signal [1, 6] | decrease of plasma membrane-associated fluorescence signal [1, 7] | decrease of fluorescence in the presence of EDTA upon stimulation with OGs ([1]; 100 μg/ml OGs, 5 mM EDTA) | expression of RetOx, CYP81F2 and PAD3 induced by flg22 [2] | growth inhibition of transgenic seedlings treated with flg22 [3] | development of disease symptoms / susceptibility to Pst DC3000 [4] | numbers of bacteria in leaves [4] | fluorescence variation upon treatment with elfl8 [1] | fluorescence variation upon treatment with OGs ([1]; 100 μg/ml OGs) | oxidative burst upon treatment with elfl8 [5] | oxidative burst upon treatment with elfl8 ([5]; listed as eJM) | decrease of fluorescence in the presence of EDTA upon stimulation with flg22 ([1]; 10 μM flg22, 5 mM EDTA) | internalization in the presence of EDTA upon stimulation with oligomannuronides (OMs) ([1]; 100 μg/mL OMs, EDTA) | internalization in the presence of EDTA upon stimulation with 3-6 OGs ([1]; 100 μg/ml 3-6 OGs, EDTA) | decrease of fluorescence from the cell membrane ([1]; after 20 min) | decrease of fluorescence from the cell membrane ([1]; after 30 min)
FLS2 [reference compound] | 15% | 30% | No decrease of fluorescence | induced | did not show growth inhibition | Ws-0 plants showed a faster and more severe development of disease symptoms | higher numbers of bacteria in Ws-0 |  |  |  |  |  |  |  |  | 
eJMC: chimera (Arg806FLS2-Val650EFR): LRR and eJM domains of FLS2 fused upstream of TM, iJM and kinase domains of EFR, GFP-fused | 25% | 40% |  | induced | did not show growth inhibition | Ws-0 plants showed a faster and more severe development of disease symptoms; also recorded: less susceptible | higher numbers of bacteria in Ws-0 | did not induce any significant fluorescence variation | did not induce any significant fluorescence variation | not | did not show any significant response |  |  |  |  | 
EFR: Arabidopsis LRR receptor kinase Elongation Factor Tu Receptor (AT5G20480); GFP-fused control (protein) RFSNETDMQALLEFKSQVSENNKREVLASWNHSSPFCNWIGVTCGRRRERVISLNLGGFKLTGVISPSIGNLSFLRLLNLADNSFGSTIPQKVGRLFRLQYLNMSYNLLEGRIPSSLSNCSRLSTVDLSSNHLGHGVPSELGSLSKLAILDLSKNNLTGNFPASLGNLTSLQKLDFAYNQMRGEIPDEVARLTQMVFFQIALNSFSGGFPPALYNISSLESLSLADNSFSGNLRADFGYLLPNLRRLLLGTNQFTGAIPKTLANISSLERFDISSNYLSGSIPLSFGKLRNLWWLGIRNNSLGNNSSSGLEFIGAVANCTQLEYLDVGYNRLGGELPASIANLSTTLTSLFLGQNLISGTIPHDIGNLVSLQELSLETNMLSGELPVSFGKLLNLQVVDLYSNAISGEIPSYFGNMTRLQKLHLNSNSFHGRIPQSLGRCRYLLDLWMDTNRLNGTIPQEILQIPSLAYIDLSNNFLTGHFPEEVGKLELLVGLGASYNKLSGKMPQAIGGCLSMEFLFMQGNSFDGAIPDISRLVSLKNVDFSNNNLSGRIPRYLASLPSLRNLNLSMNKFEGRVPTTGVFRNATAVSVFGNTNICGGVREMQLKPCIVQASPRKRKPLSVRKKVVSGICIGIASLLLIIIVASLCWFMKRKKKNNASDGNPSDSTTLGMFHEKVSYEELHSATSRFSSTNLIGSGNFGNVFKGLLGPENKLVAVKVLNLLKHGATKSFMAECETFKGIRHRNLVKLITVCSSLDSEGNDFRALVYEFMPKGSLDMWLQLEDLERVNDHSRSLTPAEKLNIAIDVASALEYLHVHCHDPVAHCDIKPSNILLDDDLTAHVSDFGLAQLLYKYDRESFLNQFSSAGVRGTIGYAAPEYGMGGQPSIQGDVYSFGILLLEMFSGKKPTDESFAGDYNLHSYTKSILSGCTSSGGSNAIDEGLRLVLQVGIKCSEEYPRDRMRTDEAVRELISIRSKFFSSKTTITESPRDAPQSSPQEWMLNTDMHTM |  |  |  |  |  |  |  | no significant decrease of fluorescence |  | produced an oxidative burst; also recorded: robust oxidative burst |  |  |  |  |  | 
WEG: chimeric receptor: WAK1 ectodomain fused to the TM-iJM-kinase portion of EFR, GFP-fused (protein, left off: large carriers) QHQPGENCQNKCGNITIEYPFGISSGCYYPGNESFSITCKEDRPHVLSDIEVANFNHSGQLQVLLNRSSTCYDEQGKKTEEDSSFTLENLSLSANNKLTAVGCNALSLLDTFGMQNYSTACLSLCDSPPEADGECNGRGCCRVDVSAPLDSYTFETTSGRIKHMTSFHDFSPCTYAFLVEDDKFNFSSTEDLLNLRNVMRFPVLLDWSVGNQTCEQVGSTSICGGNSTCLDSTPRNGYICRCNEGFDGNPYLSAGCQDVNECTTSSTIHRHNCSDPKTCRNKVGGFYCKCQSGYRLDTTTMSCKRKEVVSGICIGIASLLLIIIVASLCWFMKRKKKNNASDGNPSDSTTLGMFHEKVSYEELHSATSRFSSTNLIGSGNFGNVFKGLLGPENKLVAVKVLNLLKHGATKSFMAECETFKGIRHRNLVKLITVCSSLDSEGNDFRALVYEFMPKGSLDMWLQLEDLERVNDHSRSLTPAEKLNIAIDVASALEYLHVHCHDPVAHCDIKPSNILLDDDLTAHVSDFGLAQLLYKYDRESFLNQFSSAGVRGTIGYAAPEYGMGGQPSIQGDVYSFGILLLEMFSGKKPTDESFAGDYNLHSYTKSILSGCTSSGGSNAIDEGLRLVLQVGIKCSEEYPRDRMRTDEAVRELISIRSKFFSSKTTITESPRDAPQSSPQEWMLNTDMHTM |  |  |  |  |  |  |  |  | No decrease of the plasma membrane-associated fluorescence |  |  | No decrease of fluorescence | did not occur | did not occur | 15% | 25%
